In patent EP3685668B1, “COMPOSITION COMPRISING ACIBENZOLAR-S-METHYL AS EFFECTIVE INGREDIENT FOR CONTROLLING BURSAPHELENCHUS XYLOPHILUS DISEASE AND METHOD FOR CONTROLLING BURSAPHELENCHUS XYLOPHILUS USING SAME” (Industry Foundation of Chonnam National University, priority 2017, dated 2019):

How the values were obtained:
[1] = system: induced resistance-related genes; assay: qRT-PCR expression of induced resistance genes in pine tree callus, overall statement; assay type: cell-based; settings: 200 µg/mℓ
Procedure: For in vitro analysis of induced resistance, the expression of PR genes and other plant defense-related genes was determined, which are evolved in various defense mechanisms including induced resistance. The primers of sixteen induced resistance-related genes of pine tree used in this invention were listed in the below and elongation factor_1 alpha were used as a reference gene. [Table 4] The primer list of defense resistance-related genes
After the treatment with 200 µg / mℓ of candidates of the selected induced resistance material, expression of the induced resistance-related gene in pine callus was determined by qRT-PCR using the primer pairs of defense resistance-related genes in Table 4. As a candidate group of an induced resistance material in pine tree, acibenzolar-S-methyl (ASM), TDL (Tiadinil), ITL (Isotianil), PBZ (Probenzole), AZO (Azoxystrobin), VMA (Validamycin A), MeJA (Methyl jasmonate), BABA (DL-3-aminobutyric acid), 2,3-BDO (2,3-Butanediol), GABA (r-Aminobutyric acid), glucan (Glucan), ER (Ergosterol), and AZA (Azelaic acid) were used. For the in vitro analysis of the expression of induced resistance gene in pine callus, the selected induced resistance materials were applied with 500 µℓ of LM liquid medium on a surface of pine tree callus (100 mg) in 12-well microplate to give final concentration of 200 µg/mℓ. Then, the callus surface was sufficiently reacted for 24 hours with the candidate of pine tree induced resistance material by shaking at 50 rpm in a 25 °C shaking incubator under dark condition. RNAs were extracted from the callus after completion of the reaction with an induced resistance material, followed by synthesis of cDNAs. Then, by carrying out qRT-PCR, the expression of induced resistance genes was determined. [Table 5] Expression of induced resistance gene in pine tree callus by TDL, PBZ, ASM, ITL, AZO, VMA, glucan, and AZA

Heat shock 70 = assay: qRT-PCR expression of induced resistance gene in pine tree callus; assay type: cell-based; settings: concentration series, 2 µg/mℓ
[2] = system: Bursaphelenchus xylophilus; assay: In vitro nematicidal activity, 96-well microplate; settings: after 3 days
Procedure: To test the nematicidal activity of acibenzolar-S-methyl, a suspension of Bursaphelenchus xylophilus was diluted in a 96-well microplate to have 50 worms/99 µℓ in each well and used for the treatment. […] Each treatment was repeated 3 times, and "A Pharm" (emamectin benzoate, 2.15%), which is a chemical pesticide, was used as a control group. After the treatment, the 96-well plate was kept in a plastic box having water-soaked wipes spread on the bottom to maintain 100% humidity, and, after covering the box with black cloth, the box was stored in a dark state with blockage of light. The observation was made after 3 days. […] [Table 2] Nematicidal activity of acibenzolar-S-methyl against Bursaphelenchus xylophilus

Antipeptide = assay: qRT-PCR expression of induced resistance gene in pine tree callus; assay type: cell-based; settings: concentration series
PR_1b family = assay: as above; assay type: cell-based; settings: concentration series
[3] = system: Bursaphelenchus xylophilus; assay: Control efficacy against pine wilt disease by trunk injection, foliar spraying or soil drenching, greenhouse, red pine trees; assay type: in vivo; settings: red pine tree, observed for 80 days
Procedure: The control efficacy of acibenzolar-S-methyl, which shown to have the highest activity in Example 1, was determined by three different treatment methods, i.e., trunk injection, foliar spraying, and soil drenching. For in vivo pathogenesis test, 2-year old young red pine trees (diameter of 5.5 mm or so, and height of about 35 mm) were used like Example 2.
For the trunk injection, a borehole was created at an angle of 45° by using an electric drill with thickness of 1.5 mm on a pine stem part that is 5 to 10 cm above the soil surface, a tip (200 µℓ) was inserted to the hole, and the working solution of chemicals was injected in an amount of 100 µℓ per pine tree after dissolving acibenzolar-S-methyl at concentration of 0.2 or 10 mg/mℓ in an aqueous solution containing 10% acetone and 10% methanol. After the treatment, the end part of the tip was sealed with parafilm, and a small hole was created thereon as an airflow hole. For the foliar spraying, a pre-treatment with Tween 20 (250 µg/mℓ) was carried out at 5 mℓ per pine tree to help the adsorption of the chemical on pine leaves, followed by drying for 2 hours. After drying, acibenzolar-S-methyl was dissolved at concentration of 1.6 mg/mℓ in an aqueous solution containing 10% acetone and Tween 20 (250 µg/mℓ) and the dissolved solution was filled in microsprayer and was applied 5 mℓ per pine tree by foliar spraying. For the soil drenching, acibenzolar-S-methyl was dissolved at concentration level of 0.2 mg/mℓ in an aqueous solution containing 10% acetone and Tween 20 (250 µg/mℓ), and this solution was used for soil drenching in a pot with planted pine tree, 40 mℓ per pine tree. […] [Table 3] The control efficacy of acibenzolar-S-methyl against pine wilt disease by various treatment methods

PR_2 family = assay: qRT-PCR expression of induced resistance gene in pine tree callus; assay type: cell-based; settings: concentration series, 2 µg/mℓ
Xyloglucan = assay: as above; assay type: cell-based; settings: concentration series
PR_3 family class 1 = assay: as above; assay type: cell-based; settings: concentration series, 2 µg/mℓ
[4] = Foliar spraying, 1,600 µg/mℓ, 5 mℓ per tree
[5] = Soil drenching, 200 µg/mℓ, 40 mℓ per tree

OCC1=C[C@@H](N[C@H]2C[C@H](CO)[C@@H](O[C@H]3O[C@@H](CO)[C@H](O)[C@@H](O)[C@@H]3O)[C@H](O)[C@H]2O)[C@H](O)[C@@H](O)[C@@H]1O [VMA, Validamycin A]
expression of induced resistance-related genes is induced overall [1]: ≥ 2 times

NCCCC(=O)O [GABA, r-Aminobutyric acid]
expression of induced resistance-related genes is induced overall [1]: ≥ 2 times

CSC(=O)c1cccc2nnsc12 [ASM, acibenzolar-S-methyl]
Gene expression level, Heat shock 70 (Heat shock 70): 22.47 | Nematicidal rate (%) ([2]; 33.3 µg/mℓ): 1.72% | Nematicidal rate (%) ([2]; 100 µg/mℓ): 1.94% | Nematicidal rate (%) ([2]; 300 µg/mℓ): 2.24% | nematicidal activity ([2]; second stage larvae, 300, 100 or 33.3 µg/mℓ): no nematicidal activity | Gene expression level, Antipeptide (Antipeptide; 2 µg/mℓ): 5.816 | Gene expression level, Antipeptide (Antipeptide; 20 µg/mℓ): 7.111 | Gene expression level, PR_1b family (PR_1b family; 2 µg/mℓ): 1.064 | Gene expression level, PR_1b family (PR_1b family; 20 µg/mℓ): 1.248 | Control value (%) [3, 4]: 61% | Disease occurrence rate (%) [3, 4]: 28% | Control value (%) [3, 5]: 97% | Disease occurrence rate (%) [3, 5]: 2% | Control value (%) ([3]; Trunk injection, 200 µg/mℓ): 77% | Disease occurrence rate (%) ([3]; Trunk injection, 200 µg/mℓ): 16% | Control value (%) ([3]; Trunk injection, 10,000 µg/mℓ): 27% | Disease occurrence rate (%) ([3]; Trunk injection, 10,000 µg/mℓ): 52% | Gene expression level, PR_2 family (PR_2 family): 1.828 | Gene expression level, Xyloglucan (Xyloglucan; 2 µg/mℓ): 7.013 | Gene expression level, Xyloglucan (Xyloglucan; 20 µg/mℓ): 5.389 | Gene expression level, PR_3 family class 1 (PR_3 family class 1): 3.945 | expression of induced resistance-related genes is induced overall [1]: ≥ 2 times | expression of most PR genes was enhanced [1]: ≥ 2 times
